“Also recorded” adds a separate entry of the source. Read-outs that look alike come from different tables or passages of the source.
How the values were obtained:
J774 macrophages [1] = conditions: Ordonez et al. 2017; cited from earlier work
bacteria [2] = conditions: gram negative and gram positive; Ordonez et al. 2017; cited from earlier work
P. aeruginosa = conditions: Ordonez et al. 2017; cited from earlier work
bacteria [3] = test: In vitro uptake of radiolabeled sugar in bacterial cultures; assay type: cell-based, E. coli, S. aureus; conditions: FIGS. 1B-1C
Description: (§1) The inventors identified sugars and other molecules involved in the metabolic pathways of clinically-relevant fungal infections, and generated radiolabeled versions (3H or 14C) that were tested for in vitro uptake in bacteria (gram-negative, gram-positive, Pseudomonas aeruginosa), macrophages (J774 cell line) and m clinically-relevant fungal strains including Aspergillus, Rhizomucor, Cryptococcus and Candida albicans. Organisms and cells were exposed to the radiolabeled compounds and the in vitro uptake was measured (retained radioactivity after incubation and washing of the cultures measured using a beta counter). […] For the biodistribution and autoradiography studies showing specific uptake of the radioactive molecules by fungal-infected animals (i.e., retained radioactivity in the lungs in the infected animals but not in the control animals), the ligand(s) specific for each type of fungi was radiolabeled with 18F or other PET isotopes. Using the radiolabeled ligand(s), live PET imaging is performed on infected mice using a microPET/CT scanner. This is done by injecting the radioactive ligand intravenously through the tail vein and then positioning the animals inside the microPET/CT gantry and obtaining CT scan images as well as PET emission data. The images are reconstructed and analyzed using special software. […]

A. fumigatus = test: In vitro uptake of radiolabeled sugar in fungal cultures (retained radioactivity after incubation and washing); assay type: cell-based, Aspergillus fumigatus
Description: as §1, with “This is done by injecting the radioactive ligand intravenously through the tail vein and then positioning the animals inside the microPET/CT gantry and obtaining CT scan images as well as PET emission data.” left out
(§2) In vitro studies using ^3H-cellobiose were performed with measurement of retained radioactivity after incubation and washing of the cultures using a beta counter.

[4] = tested on: A. fumigatus infected mice; test: Autoradiography of tissue sections from injected infected mice; assay type: in vivo, mouse; conditions: lung sections; nasopharyngeal inoculation model; FIG. 1F, FIG. 5A
Description: as §1, with “Using the radiolabeled ligand(s), live PET imaging is performed on infected mice using a microPET/CT scanner. This is done by injecting the radioactive ligand intravenously through the tail vein and then positioning the animals inside the microPET/CT gantry and obtaining CT scan images as well as PET emission data.” left out
ex vivo experiments were performed, including biodistribution (injecting the animals with radiolabeled molecules followed by euthanasia, collection of organs and measurement of radioactivity) and autoradiography (sectioning of lung tissues from injected animals to measure residual radioactivity). […]

J774 macrophages [5] = test: In vitro uptake of radiolabeled sugar in macrophages / mammalian cells; assay type: cell-based; conditions: J774 cell line; FIG. 1D, FIG. 4B
Description: as §1, with “This is done by injecting the radioactive ligand intravenously through the tail vein and then positioning the animals inside the microPET/CT gantry and obtaining CT scan images as well as PET emission data.” left out
as §2

[6] = tested on: A. fumigatus-infected lungs (nasopharyngeal model); test: Organ biodistribution after injection of radiolabeled sugar in Aspergillus-infected mice; assay type: in vivo, mouse; conditions: infected vs uninfected controls / sterile lung inflammation, FIG. 2, FIG. 4C
Description: as §1, with “Using the radiolabeled ligand(s), live PET imaging is performed on infected mice using a microPET/CT scanner. This is done by injecting the radioactive ligand intravenously through the tail vein and then positioning the animals inside the microPET/CT gantry and obtaining CT scan images as well as PET emission data.” left out
ex vivo experiments were performed, including biodistribution (injecting the animals with radiolabeled molecules followed by euthanasia, collection of organs and measurement of radioactivity) and autoradiography (sectioning of lung tissues from injected animals to measure residual radioactivity).

[7] = tested on: pulmonary aspergillosis (Aspergillus lung infection); assay type: in vivo, mouse; conditions: for PET/CT uptake (SUV) in lungs of infected mice: 60-minute dynamic PET/CT, pulmonary aspergillosis model vs controls and poly (I:C) treated mice
Description: The inventors identified sugars and other molecules involved in the metabolic pathways of clinically-relevant fungal infections, and generated radiolabeled versions (3H or 14C) that were tested for in vitro uptake in bacteria (gram-negative, gram-positive, Pseudomonas aeruginosa), macrophages (J774 cell line) and m clinically-relevant fungal strains including Aspergillus, Rhizomucor, Cryptococcus and Candida albicans. Organisms and cells were exposed to the radiolabeled compounds and the in vitro uptake was measured (retained radioactivity after incubation and washing of the cultures measured using a beta counter). […] For the biodistribution and autoradiography studies showing specific uptake of the radioactive molecules by fungal-infected animals (i.e., retained radioactivity in the lungs in the infected animals but not in the control animals), the ligand(s) specific for each type of fungi was radiolabeled with 18F or other PET isotopes. Using the radiolabeled ligand(s), live PET imaging is performed on infected mice using a microPET/CT scanner. This is done by injecting the radioactive ligand intravenously through the tail vein and then positioning the animals inside the microPET/CT gantry and obtaining CT scan images as well as PET emission data. The images are reconstructed and analyzed using special software. To confirm specificity for fungal infection, in vivo uptake of the ligand(s) in animal models of sterile inflammation, as well as models of bacterial infection (gram positive and gram negative bacteria) are performed.
Three main mouse models were developed: (1) Aspergillus lung infection (nasopharyngeal administration of 30 μl suspension of Aspergillus conidia), (2) Aspergillus hematogenous spread (intravenous administration of 100 μl of fungal suspension via the tail vein) and (3) sterile lung inflammation model (induced by nasopharyngeal administration of 50-100 μg of poly (I:C) suspension in 30 μl of sterile PBS; poly(I:C) is a synthetic double stranded RNA which activates Toll-like receptors-3 (TLR3), thereby inducing signaling via multiple inflammatory pathways).
Standardized uptake values (SUVs) of ^18F-L-rhamnose in infected mice were then measured, and compared to animals with sterile lung inflammation (24 hours following post-pharyngeal poly (I:C) administration) and healthy controls.

## C[C@H](O)[C@H](O)[C@@H](O)[C@@H](O)C=O [L-Rhamnose]
J774 macrophages [1]
  L-Rhamnose uptake in macrophages: very low
Bacteria [2]
  L-Rhamnose uptake in bacteria: low
P. aeruginosa
  L-Rhamnose uptake in P. aeruginosa: very low

## C[C@H](O)[C@H](O)[C@@H](O)[C@@H](O)C=O [^3H-L-Rhamnose]
Bacteria [3]
  in vitro retention of 3H-L-Rhamnose by bacteria: minimal retention
A. fumigatus; retained radioactivity after incubation and washing, beta counter, FIG. 1A, FIG. 4A
  in vitro retention/uptake of 3H-labeled sugar by A. fumigatus: significant retention
[4]
  autoradiography: uptake in lungs of infected mice: accumulation of ^3H-L-Rhamnose in the lungs of infected but not uninfected animals
J774 macrophages [5]
  in vitro retention/uptake of 3H-labeled sugar by macrophages (mammalian cells): minimal retention
[6]
  biodistribution: uptake in lungs of infected versus control mice: uptake of ^3H-L-Rhamnose in the lungs of infected animals but not in uninfected controls; also recorded: increased uptake in the lungs of infected compared to control mice and mice with sterile lung inflammation

## C[C@H](O)[C@H](O)[C@@H](O)[C@@H]([18F])C=O [^18F-L-rhamnose, 2-deoxy-2-[^18F]fluororhamnose]
[7]; FIG. 3A
  PET/CT uptake (SUV) in lungs of infected mice: slight higher uptake in lung lesions compared to controls and poly (I:C) treated mice
[7]; FIG. 3A, listed as [^18F]-rhamnose
  PET/CT uptake (SUV) in lungs of infected mice: Increased uptake is seen in the lungs of nasopharyngeally-infected pulmonary IA (AF NP) mice
[7]; control and poly (I:C) mice, averaged 520-3520 seconds post injection, FIG. 3A
  PET uptake in lungs of control or sterile lung inflammation mice: no appreciable uptake is seen in the lungs of control or sterile lung (poly (I:C)inflammation mice
[7]; mouse, in vivo
  washout of the ligand (time activity curve): relatively fast washout
A. fumigatus; live versus heat-killed cultures, FIG. 1E
  in vitro uptake of ^18F-L-rhamnose by A. fumigatus: specifically internalized by live A. fumigatus cultures when compared to heat-killed cultures
